In article PMC10498667 (Chemical Science, 2023):

Biological target: T1, 15N-labeled Aβ42 (Homo sapiens, UniProt P05067)
T1 construct: the human Ab42 peptide was artificially constructed using codons; extra Met residue (start codon) before Asp1 (N); made in house; host or cells: E. coli BL21 (DE3) pLysS, pAED4 vector
Experiment: 2D SOFAST-HMQC NMR with 15N-labeled Aβ42
Type: binding
Settings: 15N-Aβ42 33 μM; 6 100 μM; 10 °C
Procedure: Cell viability was determined by the MTT assay [MTT = 3-(4,5-dimethylthiazol-2-yl)-2,5-diphenyltetrazolium bromide]. Cells were seeded in a 96-well plate (15,000 cells/100 µL) and treated with the samples {[flavonoid] = 5, 10, 25, 50, and 100 µM (1% v/v DMSO)}. After 24 h incubation, 5Y cells were washed with phosphate buffered saline (PBS; GIBCO). MTT [5 mg/mL in PBS (pH 7.4, GIBCO); 25 µL] was added to each well and the plate was incubated for 4 h at 37 °C. The formazan produced by cells was solubilized using an acidic solution of DMF (pH 4.5, 50% v/v, aq) and sodium dodecyl sulfate (SDS; 20% w/v) overnight at room temperature in the dark. Absorbance was measured at 600 nm by a microplate reader (Molecular Devices). Cell viability, relative to that of the cells containing an equivalent amount of DMSO, was calculated.
The measurements were conducted in triplicate. […]
loading into the instrument. […]
The initial delay and the reference power were 60 s and 10 µcal/s, […]
The ITC thermogram and binding isotherm were shown after the subtraction of the dilution heat.
The binding isotherm after baseline correction was fitted to the one-set-of-sites binding model using the MicroCal Origin software (version 7.0).
Expression and Purification of 15N-labeled Recombinant Ab42. […]

T1 sequence (P05067 671-713 limits assumed): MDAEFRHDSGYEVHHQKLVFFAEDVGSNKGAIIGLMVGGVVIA

In the case of `O=c1c(-c2ccc(O)c(O)c2)coc2cc(O)c(O)c(O)c12` [compound 6, 3-(3,4-dihydroxyphenyl)-5,6,7-trihydroxy-4H-chromen-4-one], the “decrease of overall NMR peak intensity” value is reported as “ca. 20%”.
